The subject of the experiment is Ba/F3-INSR xenograft. The experiment can be described thus: Xenograft tumor growth inhibition. In kind it is in vivo, mice. An excerpt:
Six week old female NCr nu/nu mice (for SNU-16) or CB-17 SCID female mice (for NCI-H716 and BaF3 models) were purchased from Taconic Farms (Germantown, NY) and allowed to acclimate for greater than 2 weeks. Mice were housed in sterile micro isolator cages with 5 mice per cage and were received food and water ad libitum. Tumor cells were suspended in 50% Matrigel (lot# A9618-BD, Bioscience) and sterile Hanks Balanced Salt Solution (HBSS) for the NCI-H716 model or in HBSS alone for SNU-16. Each mouse was implanted subcutaneously with 5x10^6 cells (SNU-16) or 8x10^6 cells (NCI-H716) or 2x10^6 cells (BaF3) to the upper right flank area. Tumor measurements and body weights were collected two to three times per week with electronic calipers and balance. Tumor weight (mg) was calculated from the equation: length x (width)^2/2. This formula was used to calculate tumor volume assuming unit density 1 mg = 1 mm^3. Treatment was initiated when tumor burden was between 100–200 mgs. Percent inhibition or tumor growth inhibition (TGI) was calculated using the following formula: 100-[mean tumor value of treated / mean tumor value of control] x 100.
Plasma and tumor samples were collected 4 hours post single dose. […] Dosing volume for all groups was 10 mL/kg or 0.1 mL/10 g body weight.

Each structure is given as a SMILES string.

As for `CC[C@]1(O)C[C@@H]2CN(CCc3c([nH]c4ccccc34)[C@@](C(=O)OC)(c3cc4c(cc3OC)N(C)[C@H]3[C@@](O)(C(=O)OC)[C@H](OC(C)=O)[C@]5(CC)C=CCN6CC[C@]43[C@@H]65)C2)C1` [Vinblastine], the T/C runs as follows: (10 mg/kg IV Q5Dx2, Day 10) 100.48; (10 mg/kg IV Q5Dx2, Day 13) 42.10; (10 mg/kg IV Q5Dx2, Day 15) 37.24; (10 mg/kg IV Q5Dx2, Day 17) 11.60; (10 mg/kg IV Q5Dx2, Day 20) 2.84. Moreover, the “Tumor Weights (mg), MEAN” value by setting is: (10 mg/kg IV Q5Dx2, Day 10) 230.70 mg; (10 mg/kg IV Q5Dx2, Day 13) 256.70 mg; (10 mg/kg IV Q5Dx2, Day 15) 325.90 mg; (10 mg/kg IV Q5Dx2, Day 17) 196.60 mg; (10 mg/kg IV Q5Dx2, Day 20) 69.22 mg.

(Values after publication PMC5023172, “Preclinical Activity of ARQ 087, a Novel Inhibitor Targeting FGFR Dysregulation” (PLoS ONE, 2016).)
